Data from patent US12077503B2, “Substituted cyclic amides and their use as herbicides” (FMC CORPORATION, priority 2015, dated 2024).

Experiments:
Assay type in all cases: in vivo
[1] = system: giant foxtail (Setaria faberi); assay: Test G Post-Emergence Protocol; conditions: Setaria faberi, post-emergence, 312 h, read-out: Foxtail, Giant damage rating; for pest or weed control at 15.625 g/ha: 15.625 g ai/ha, evaluated after 13 days (100=total damage to plant; 0=no damage to plant); for pest or weed control at 62.5 g/ha: 62.5 g ai/ha; for pest or weed control at 62.5 g/ha / pest or weed control at 250 g/ha: evaluated after 13 days, 100=total damage to plant, 0=no damage to plant; for pest or weed control at 250 g/ha: 250 g ai/ha
Method in brief: (§1)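 Pot-grown seedlings, 8 days old, raised in a glasshouse at 24/16 °C day/night with 14 h light and 65% humidity, were sprayed post-emergence with test compound in acetone/water (50:50) plus 0.5% Tween 20 at 15.625, 62.5 or 250 g/ha. Damage was scored visually 13 days later on a 0–100 scale (100 = total damage).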

[2] = system: redroot pigweed (Amaranthus retroflexus); assay: Test G Post-Emergence Protocol; conditions: Amaranthus retroflexus, post-emergence, 312 h, read-out: Pigweed, Redroot damage rating; for pest or weed control at 15.625 g/ha: 15.625 g ai/ha, evaluated after 13 days (100=total damage to plant; 0=no damage to plant); for pest or weed control at 62.5 g/ha: 62.5 g ai/ha; for pest or weed control at 62.5 g/ha / pest or weed control at 250 g/ha: evaluated after 13 days, 100=total damage to plant, 0=no damage to plant; for pest or weed control at 250 g/ha: 250 g ai/ha
Method in brief: as §1

[3] = system: barnyardgrass (Echinochloa crus-galli); assay: Test G Post-Emergence Protocol; conditions: Echinochloa crus-galli, post-emergence, 312 h, read-out: Barnyardgrass damage rating; for pest or weed control at 15.625 g/ha: 15.625 g ai/ha, evaluated after 13 days (100=total damage to plant; 0=no damage to plant); for pest or weed control at 62.5 g/ha: 62.5 g ai/ha; for pest or weed control at 62.5 g/ha / pest or weed control at 250 g/ha: evaluated after 13 days, 100=total damage to plant, 0=no damage to plant; for pest or weed control at 250 g/ha: 250 g ai/ha
Method in brief: as §1

[4] = system: velvetleaf (Abutilon theophrasti); assay: Test G Post-Emergence Protocol; conditions: Abutilon theophrasti, post-emergence, 312 h, read-out: Velvetleaf damage rating; for pest or weed control at 15.625 g/ha: 15.625 g ai/ha, evaluated after 13 days (100=total damage to plant; 0=no damage to plant); for pest or weed control at 62.5 g/ha: 62.5 g ai/ha; for pest or weed control at 62.5 g/ha / pest or weed control at 250 g/ha: evaluated after 13 days, 100=total damage to plant, 0=no damage to plant; for pest or weed control at 250 g/ha: 250 g ai/ha
Method in brief: as §1

corn (Zea mays) [5] = assay: Test G Post-Emergence Protocol; conditions: Zea mays, post-emergence, 312 h, read-out: Corn damage rating; for plant injury at 15.625 g/ha: 15.625 g ai/ha, evaluated after 13 days (100=total damage to plant; 0=no damage to plant); for plant injury at 62.5 g/ha: 62.5 g ai/ha; for plant injury at 62.5 g/ha / plant injury at 250 g/ha: evaluated after 13 days, 100=total damage to plant, 0=no damage to plant; for plant injury at 250 g/ha: 250 g ai/ha
Method in brief: as §1

[6] = system: ivy-leaved morning glory (Ipomoea hederacea); assay: Test G Post-Emergence Protocol; conditions: Ipomoea, post-emergence, 312 h, read-out: Morningglory, Ivy-leaved damage rating; for pest or weed control at 15.625 g/ha: 15.625 g ai/ha, evaluated after 13 days (100=total damage to plant; 0=no damage to plant); for pest or weed control at 62.5 g/ha: 62.5 g ai/ha; for pest or weed control at 62.5 g/ha / pest or weed control at 250 g/ha: evaluated after 13 days, 100=total damage to plant, 0=no damage to plant; for pest or weed control at 250 g/ha: 250 g ai/ha
Method in brief: as §1

[7] = system: giant foxtail (Setaria faberi); assay: Test G Pre-Emergence Protocol; conditions: Setaria faberi, pre-emergence, 312 h, evaluated after 13 days; for pest or weed control at 15.625 g/ha: 15.625 g ai/ha; for pest or weed control at 15.625 g/ha / pest or weed control at 250 g/ha: read-out: Foxtail, Giant damage rating (100=total damage to plant; 0=no damage to plant); for pest or weed control at 62.5 g/ha: 62.5 g ai/ha, 100=total damage to plant, 0=no damage to plant, read-out: Foxtail, Giant damage rating; for pest or weed control at 250 g/ha: 250 g ai/ha
Method in brief: (§2)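 Seeds were sown in standard soil and kept one day in a glasshouse (24/16° C day/night, 14 h light, 65% humidity), then sprayed with compound in acetone/water (50:50) containing 0.5% Tween 20 at 15.625, 62.5 or 250 g/ha. Damage was scored after 13 days (0 = none, 100 = total).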

[8] = system: redroot pigweed (Amaranthus retroflexus); assay: Test G Pre-Emergence Protocol; conditions: Amaranthus retroflexus, pre-emergence, 312 h, evaluated after 13 days; for pest or weed control at 15.625 g/ha: 15.625 g ai/ha; for pest or weed control at 15.625 g/ha / pest or weed control at 250 g/ha: read-out: Pigweed, Redroot damage rating (100=total damage to plant; 0=no damage to plant); for pest or weed control at 62.5 g/ha: 62.5 g ai/ha, 100=total damage to plant, 0=no damage to plant, read-out: Pigweed, Redroot damage rating; for pest or weed control at 250 g/ha: 250 g ai/ha
Method in brief: as §2

[9] = system: barnyardgrass (Echinochloa crus-galli); assay: Test G Pre-Emergence Protocol; conditions: Echinochloa crus-galli, pre-emergence, 312 h, evaluated after 13 days; for pest or weed control at 15.625 g/ha: 15.625 g ai/ha; for pest or weed control at 15.625 g/ha / pest or weed control at 250 g/ha: read-out: Barnyardgrass damage rating (100=total damage to plant; 0=no damage to plant); for pest or weed control at 62.5 g/ha: 62.5 g ai/ha, 100=total damage to plant, 0=no damage to plant, read-out: Barnyardgrass damage rating; for pest or weed control at 250 g/ha: 250 g ai/ha
Method in brief: as §2

[10] = system: velvetleaf (Abutilon theophrasti); assay: Test G Pre-Emergence Protocol; conditions: Abutilon theophrasti, pre-emergence, 312 h, evaluated after 13 days; for pest or weed control at 15.625 g/ha: 15.625 g ai/ha; for pest or weed control at 15.625 g/ha / pest or weed control at 250 g/ha: read-out: Velvetleaf damage rating (100=total damage to plant; 0=no damage to plant); for pest or weed control at 62.5 g/ha: 62.5 g ai/ha, 100=total damage to plant, 0=no damage to plant, read-out: Velvetleaf damage rating; for pest or weed control at 250 g/ha: 250 g ai/ha
Method in brief: as §2

corn (Zea mays) [11] = assay: Test G Pre-Emergence Protocol; conditions: Zea mays, pre-emergence, 312 h, evaluated after 13 days; for plant injury at 15.625 g/ha: 15.625 g ai/ha; for plant injury at 15.625 g/ha / plant injury at 250 g/ha: read-out: Corn damage rating (100=total damage to plant; 0=no damage to plant); for plant injury at 62.5 g/ha: 62.5 g ai/ha, 100=total damage to plant, 0=no damage to plant, read-out: Corn damage rating; for plant injury at 250 g/ha: 250 g ai/ha
Method in brief: as §2

[12] = system: ivy-leaved morning glory (Ipomoea hederacea); assay: Test G Pre-Emergence Protocol; conditions: Ipomoea, pre-emergence, 312 h, evaluated after 13 days; for pest or weed control at 15.625 g/ha: 15.625 g ai/ha; for pest or weed control at 15.625 g/ha / pest or weed control at 250 g/ha: read-out: Morningglory, Ivy-leaved damage rating (100=total damage to plant; 0=no damage to plant); for pest or weed control at 62.5 g/ha: 62.5 g ai/ha, 100=total damage to plant, 0=no damage to plant, read-out: Morningglory, Ivy-leaved damage rating; for pest or weed control at 250 g/ha: 250 g ai/ha
Method in brief: as §2

Compound | pest or weed control at 15.625 g/ha [1] [%] | pest or weed control at 62.5 g/ha [1] [%] | pest or weed control at 250 g/ha [1] [%] | pest or weed control at 15.625 g/ha [2] [%] | pest or weed control at 62.5 g/ha [2] [%] | pest or weed control at 250 g/ha [2] [%] | pest or weed control at 15.625 g/ha [3] [%] | pest or weed control at 62.5 g/ha [3] [%] | pest or weed control at 250 g/ha [3] [%] | pest or weed control at 15.625 g/ha [4] [%] | pest or weed control at 62.5 g/ha [4] [%] | pest or weed control at 250 g/ha [4] [%] | plant injury at 15.625 g/ha (corn (Zea mays) [5]) [%] | plant injury at 62.5 g/ha (corn (Zea mays) [5]) [%] | plant injury at 250 g/ha (corn (Zea mays) [5]) [%] | pest or weed control at 15.625 g/ha [6] [%] | pest or weed control at 62.5 g/ha [6] [%] | pest or weed control at 250 g/ha [6] [%] | pest or weed control at 15.625 g/ha [7] [%] | pest or weed control at 62.5 g/ha [7] [%] | also measured
CN1C[C@@H](c2cccc(C(F)(F)F)c2)[C@H](C(=O)Nc2cccc(F)n2)C1=O [Compound 1817] | 0 | 0 | 0 | 0 | 0 | 0 | 0 | 0 | 0 | 0 | 0 | 0 | 0 | 0 | 0 | 0 | 0 | 0 | 0 | 0 | pest or weed control at 250 g/ha [7]: 10%; pest or weed control at 15.625 g/ha [8]: 0%; pest or weed control at 62.5 g/ha [8]: 0%; pest or weed control at 250 g/ha [8]: 0%; pest or weed control at 15.625 g/ha [9]: 0%; pest or weed control at 62.5 g/ha [9]: 0%; pest or weed control at 250 g/ha [9]: 0%; pest or weed control at 15.625 g/ha [10]: 0%; pest or weed control at 62.5 g/ha [10]: 0%; pest or weed control at 250 g/ha [10]: 0%; plant injury at 15.625 g/ha (corn (Zea mays) [11]): 0%; plant injury at 62.5 g/ha (corn (Zea mays) [11]): 0%; plant injury at 250 g/ha (corn (Zea mays) [11]): 0%; pest or weed control at 15.625 g/ha [12]: 0%; pest or weed control at 62.5 g/ha [12]: 0%; pest or weed control at 250 g/ha [12]: 0%
CN1C[C@H](c2cccc(C(F)(F)F)c2)[C@@H](C(=O)Nc2ccc3cccnc3n2)C1=O (racemic) [Compound 1676] | 0 | 0 | 0 | 0 | 0 | 0 | 0 | 0 | 0 | 0 | 0 | 0 | 0 | 0 | 0 | 0 | 0 | 0 | 0 | 0 | pest or weed control at 250 g/ha [7]: 0%; pest or weed control at 15.625 g/ha [8]: 0%; pest or weed control at 62.5 g/ha [8]: 0%; pest or weed control at 250 g/ha [8]: 0%; pest or weed control at 15.625 g/ha [9]: 0%; pest or weed control at 62.5 g/ha [9]: 0%; pest or weed control at 250 g/ha [9]: 0%; pest or weed control at 15.625 g/ha [10]: 0%; pest or weed control at 62.5 g/ha [10]: 0%; pest or weed control at 250 g/ha [10]: 0%; plant injury at 15.625 g/ha (corn (Zea mays) [11]): 0%; plant injury at 62.5 g/ha (corn (Zea mays) [11]): 0%; plant injury at 250 g/ha (corn (Zea mays) [11]): 0%; pest or weed control at 15.625 g/ha [12]: 0%; pest or weed control at 62.5 g/ha [12]: 0%; pest or weed control at 250 g/ha [12]: 0%
